Assay results reported in US20050215517A1, “Use of an anti-endotoxin drug in the prevention and treatment of disease” (priority 1999, published 2005).

What was measured:
[1] = Plasma pharmacokinetics of E5564 after single bolus intravenous injection; format: in vivo, dogs; details: single bolus i.v.
Procedure: FIG. 3 is a graph showing the plasma levels of E5564 after a single bolus injection. After bolus administration of 0.1 mg/kg E5564 (∘), 0.3 mg/kg E5564 (□), and 1 mg/kg E5564 (▪), blood was drawn and analyzed for E5564 concentration by extraction and analysis by HPLC. Each value represents the mean±S.E.M. of three animals. No drug was detectable in samples drawn prior to dosing.
(§1) This long-term presence of unmodified E5564 in blood initially led us to believe that active drug was likely present for very long periods of time after cessation of drug administration.

[2] = Plasma pharmacokinetics of E5564 after 72 hours intravenous infusion; format: in vivo, beagle dogs; details: 72 h i.v. infusion; for T½: after end of infusion
Procedure: FIG. 4 is a graph showing the plasma levels of E5564 during and after 72 hours of intravenous infusion. […] At the indicated times, blood was drawn and analyzed for E5564 concentration by extraction and analysis by HPLC. Each value represents the mean±S.E.M. of three animals. No drug was detectable in samples drawn prior to dosing.
as §1

LPS-induced IL-6 release = assay: Inhibition of LPS-induced IL-6 release in ex vivo blood samples during intravenous infusion of E5564; design: species or system beagle dogs
Procedure: (§2) FIG. 5 is a pair of graphs showing ex vivo analysis of active E5564 during intravenous infusion. Activity of E5564 was determined during intravenous infusion of 0.24 mg/kg/hour E5564 (□,∘) or 2.4 mg/kg/hour E5564 (▪,●) into female (upper panel) or male (lower panel) beagle dogs. At the indicated times, blood was drawn and analyzed for E5564 activity by adding 1 ng/ml LPS, incubating for three hours at 37° C., and assaying the plasma fraction for IL-6 by bioassay, as is described in the Materials and Methods section (below). Each value represents the mean±standard deviation of samples assayed in duplicate from each animal. The zero hour sample was taken prior to infusion.
as §2, with “FIG. 6” for “FIG. 5”, “adding 10” for “adding 1”
as §2, with “FIG. 7” for “FIG. 5”, “adding 100” for “adding 1”
To assess the activity of E5564 over multiple time points from a single treated animal, we employed an ex vivo assay, as is mentioned above, to test for active drug in samples of blood drawn from a treated animal. Samples of blood were drawn from beagle dogs infused with E5564 over a period of 24 hours. One dog of each sex was tested under each of two dose regimens: a low dose of 0.24 mg/kg/hour and a high dose of 2.4 mg/kg/hour.
Blood samples were taken from these dogs at predose, 4 hours after initiation of infusion, and 24 hours after initiation of infusion. The blood samples were challenged with 0, 1, 10, or 100 ng/ml LPS, and then incubated for three hours. The samples were then analyzed for activation by LPS, using induction of cytokine response as a readout.
LPS from Escherichia coli (0111:B4) was purchased from List Biologicals (Campbell, Calif.). LPS was dissolved in sterile water at 1 mg/ml and stored at −20° C. Prior to use, LPS was sonicated in a bath sonicator (VW-380; Heat Systems-Ultrasonics Inc., Farmingdale, N.Y.) for 1-2 minutes immediately before use and diluted into Ca^2+, Mg^2+ free Hanks balanced salt solution (HBSS; Sigma).
Dogs were treated with E5564 (0.24 or 2.4 mg/kg/hour) dissolved in a mixture of placebo solution (10% lactose monohydrate, 0.045% Na2HPO4.7H2O, 0.035% NaH2PO4.H2O, 0.006% NaOH; pH 7.4±0.3) and 5% dextrose (1:4) by intravenous infusion via indwelling catheter for 24 hours at a rate of 2 mg/kg/hour.
(for time zero samples), or incubated with the indicated concentrations of LPS for three hours. Plasma was then prepared and immediately frozen at −80° C. Samples were stored at −80° C. until assay.
B9 cells were the gift of Dr. Mary Rodrick (Beth Israel Deaconess Hospital, Boston, Mass.). They were grown in Iscove's DMEM medium containing 5% fetal bovine serum (FBS), […] 2-mercaptoethanol, 2 mM L-glutamine, and 100 U/ml penicillin/streptomycin. […]

CCCCCC/C=C\CCCCCCCCCC(=O)N[C@H]1[C@H](OC[C@H]2O[C@H](OP(=O)(O)O)[C@H](NC(=O)CC(=O)CCCCCCCCCCC)[C@@H](OCCCCCCCCCC)[C@@H]2O)O[C@H](COC)[C@@H](OP(=O)(O)O)[C@@H]1OCC[C@@H](CCCCCCC)OC [E5564, α-D-Glucopyranose, 3-O-decyl-2-deoxy-6-O-[2-deoxy-3-O-[(3R)-3-methoxydecyl)-6-O-methyl-2-[[(11Z)-1-oxo-11-octadecenyl)amino]-4-O-phosphono-β-D-glucopyranosyl]-2-[(1,3-dioxotetradecyl)amino]-,1-(dihydrogen phosphate)]
AUC ([1]; 0.1 mg/kg dose): 71.8255 ± 1.981 µg·h/mL | T½ ([1]; 0.1 mg/kg dose): 41.7 ± 2.7 h | AUC ([1]; 0.3 mg/kg): 270.8972 µg·h/mL | T½ ([1]; 0.3 mg/kg): 50.4 ± 2.2 h | AUC ([1]; 1 mg/kg): 743.5446 µg·h/mL | T½ ([1]; 1 mg/kg): 46.4 ± 2.7 h | AUC0-144 hours ([2]; dose 0.1 mg/kg, female): 790 ± 51 µg·h/mL | C72 hours ([2]; dose 0.1 mg/kg, female): 10.35 ± 0.93 µg/mL | AUC0-144 hours ([2]; dose 0.1 mg/kg, male): 1069 ± 139 µg·h/mL | C72 hours ([2]; dose 0.1 mg/kg, male): 13.07 ± 1.22 µg/mL | AUC0-144 hours ([2]; dose 0.3 mg/kg, female): 2616 ± 737 µg·h/mL | C72 hours ([2]; dose 0.3 mg/kg, female): 32.40 ± 5.72 µg/mL | AUC0-144 hours ([2]; dose 0.3 mg/kg, male): 3309 ± 485 µg·h/mL | C72 hours ([2]; dose 0.3 mg/kg, male): 41.29 ± 7.18 µg/mL | AUC0-144 hours ([2]; dose 1 mg/kg, female): 29642 ± 1514 µg·h/mL | C72 hours ([2]; dose 1 mg/kg, female): 393.9 ± 14.2 µg/mL | AUC0-144 hours ([2]; dose 1 mg/kg, male): 27114 ± 5737 µg·h/mL | C72 hours ([2]; dose 1 mg/kg, male): 366 ± 69.3 µg/mL | T½ ([2]; dose 0.1 mg/kg, female): 40.9 ± 9.5 h | T½ ([2]; dose 0.1 mg/kg, male): 38.4 ± 4.5 h | T½ ([2]; dose 0.3 mg/kg, female): 38.0 ± 11.6 h | T½ ([2]; dose 0.3 mg/kg, male): 39.9 ± 11.2 h | T½ ([2]; dose 1 mg/kg, female): 32.0 ± 2.8 h | T½ ([2]; dose 1 mg/kg, male): 35.1 ± 8.7 h | Inhibition of response to LPS (IL-6) vs predose (LPS-induced IL-6 release; infusion 0.24 mg/kg/hour, 1 ng/ml LPS, 4 hours after beginning infusion): ≥ 98% | Inhibition of response to LPS (IL-6) vs predose (LPS-induced IL-6 release; infusion 0.24 mg/kg/hour, 1 ng/ml LPS, end of infusion (24 hours)): complete | Inhibition of response to LPS (IL-6) vs predose (LPS-induced IL-6 release; infusion 0.24 mg/kg/hour, 10 ng/ml LPS, end of infusion (24 hours)): ~85% | Maximum inhibition of response to LPS (IL-6) vs predose (LPS-induced IL-6 release; infusion 0.24 mg/kg/hour, 100 ng/ml LPS, end of infusion (24 hours)): 34-52% | Inhibition of response to LPS (IL-6) vs predose (LPS-induced IL-6 release; infusion 2.4 mg/kg/hour, 1 ng/ml LPS, 4 hours after beginning infusion): complete inhibition | Inhibition of response to LPS (IL-6) vs predose (LPS-induced IL-6 release; infusion 2.4 mg/kg/hour, 1 ng/ml LPS, end of infusion (24 hours)): complete | Inhibition of response to LPS (IL-6) vs predose (LPS-induced IL-6 release; infusion 2.4 mg/kg/hour, 10 ng/ml LPS, 4 hours): nearly completely inhibited | Inhibition of response to LPS (IL-6) vs predose (LPS-induced IL-6 release; infusion 2.4 mg/kg/hour, 10 ng/ml LPS, end of infusion (24 hours)): complete | Inhibition of response to LPS (IL-6) vs predose (LPS-induced IL-6 release; infusion 2.4 mg/kg/hour, 100 ng/ml LPS, 4 hours): nearly completely inhibited | Inhibition of response to LPS (IL-6) vs predose (LPS-induced IL-6 release; infusion 2.4 mg/kg/hour, 100 ng/ml LPS, end of infusion (24 hours)): > 90%
